Data reported in patent publication US6818670B2, “Active ingredient combination having insecticidal and acaricidal characteristics” (priority 1999, dated 2004).

What was measured:
Assay type in all cases: in vivo
[1] = tested on: Heliothis virescens caterpillars; assay: Heliothis virescens test (soya bean shoots, immersion); details: single active compound, 0.32 ppm
Method: (§1) To produce a suitable active compound preparation, 1 part by weight of active compound is mixed with the stated amounts of solvent and emulsifier, and the concentrate is diluted with emulsifier-containing water to the desired concentration.
Soya bean shoots (Glycine max) are treated by immersion in the active compound preparation of the desired concentration and are populated with Heliothis virescens caterpillars while the leaves are still moist.
(§2) After the desired period, the destruction is determined in %. 100% means that all caterpillars have been killed; 0% means that none of the caterpillars have been killed. The kill figures determined are calculated using Colby's formula.

[2] = tested on: green rice leaf-hoppers (Nephotettix cincticeps); assay: Nephotettix test (rice seedlings, immersion); details: single active compound, 0.32 ppm
Method: (§3) To produce a suitable preparation of active compound, 1 part by weight of active compound is mixed with the stated amounts of solvent and emulsifier, and the concentrate is diluted with emulsifier-containing water to the desired concentration.
Rice seedlings (Oryza sativa) are treated by immersion in the active compound preparation of the desired concentration and are populated with green rice leaf-hoppers (Nephotettix cincticeps) while the leaves are still moist.
After the desired period, the destruction is determined in %. 100% means that all leafhoppers have been killed; 0% means that none of the leafhoppers have been killed. The kill figures determined form the basis for calculations with Colby's formula.

[3] = tested on: diamond-back moth caterpillars (Plutella xylostella); assay: Plutella test (cabbage leaves, immersion); details: single active compound, 1.6 ppm
Method: as §1
Cabbage leaves (Brassica oleracea) are treated by immersion in the active compound preparation of the desired concentration and are populated with diamond-back moth caterpillars (Plutella xylostella) while the leaves are still moist.
as §2

[4] = tested on: fall army worm caterpillars (Spodoptera exigua); assay: Spodoptera exigua test (cabbage leaves, immersion); details: single active compound, 8 ppm
Method: as §3
Cabbage leaves (Brassica oleracea) are treated by immersion in the active compound preparation of the desired concentration and are populated with fall army worm caterpillars (Spodoptera exigua) while the leaves are still moist.
as §2

[5] = tested on: common spider mite (Tetranychus urticae); assay: Tetranychus test (OP-resistant/spray treatment, bean plants); details: single active compound, 0.32 ppm, OP-resistant, spray treatment
Method: OP-resistant/spray Treatment
as §1
Bean plants (Phaseolus vulgaris) which are severely infested with all stages of the common spider mite (Tetranychus urticae) are sprayed with an active compound preparation of the desired concentration.
After the desired period, the action is determined in %. 100% means that all spider mites have been killed; 0% means that none of the spider mites have been killed. The kill figures determined are calculated using Colby's formula.

Structure (SMILES) | Percentage destruction after 3 days [1] | Percentage destruction after 6 days [2] | Percentage destruction after 3 days [3] | Percentage destruction after 6 days [4] | Percentage destruction after 14 days [5]
CC1(C)C(C=C(Cl)Cl)C1C(=O)OC(C#N)c1ccc(F)c(Oc2ccccc2)c1 (stereo not shown) [Betacyfluthrin, betacyfluthrin] | 75% | 50% | 80% | 90% | 
CCC(C)(C)C(=O)OC1=C(c2ccc(Cl)cc2Cl)C(=O)OC12CCCCC2 [Ex. (I-b-1)] | 0% | 0% | 0% | 0% | 0%
COP(N)(=O)SC (stereo not shown) [Methamidophos, methamidophos] |  |  |  |  | 0%
